From patent publication US20130224234A1, “TTLL4 PEPTIDES AND VACCINES CONTAINING THE SAME” (Onco Therapy Science, Inc., priority 2010, published 2013)
“Also recorded” adds a separate entry of the source.

What was measured:
[1] = system: peptide-pulsed TISI cells; test: In vitro CTL induction, IFN-gamma ELISPOT assay (HLA-A*2402); type: cell-based, human; conditions: CTLs induced with peptide from HLA-A*2402 positive donor, peptide-pulsed TISI vs control
Description: Monocyte-derived dendritic cells (DCs) were used as antigen-presenting cells to induce cytotoxic T lymphocyte (CTL) responses against peptides presented on human leukocyte antigen (HLA). DCs were generated in vitro as described elsewhere (Nakahara S et al., Cancer Res 2003, 63(14): 4112-8). Specifically, peripheral blood mononuclear cells isolated from a normal volunteer (HLA-A*2402 positive) by Ficoll-Plaque (Pharmacia) solution were separated by adherence to a plastic tissue culture dish (Becton Dickinson) so as to enrich them as the monocyte fraction. The monocyte-enriched population was cultured in the presence of 1000 U/ml of granulocyte-macrophage colony-stimulating factor (R&D System) and 1000 U/ml of interleukin (IL)-4 (R&D System) in AIM-V Medium (Invitrogen) containing 2% heat-inactivated autologous serum (AS). After 7 days of culture, the cytokine-induced DCs were pulsed with 20 micro-g/ml of each of the synthesized peptides in the presence of 3 micro-g/ml of beta 2-microglobulin for 3 hr at 37 degrees C. in AIM-V Medium. The generated cells appeared to express DC-associated molecules, such as CD80, CD83, CD86 and HLA class II, on their cell surfaces (data not shown). These peptide-pulsed DCs were then inactivated by X-irradiation (20 Gy) and mixing at a 1:20 ratio with autologous CD8+ T cells, obtained by positive selection with CD8 Positive Isolation Kit (Dynal). These cultures were set up in 48-well plates (Corning); each well contained 1.5×10^4 peptide-pulsed DCs, 3×10^5 CD8+ T cells and 10 ng/ml of IL-7 (R&D System) in 0.5 ml of AIM-V/2% AS medium. Three days later, these cultures were supplemented with IL-2 (CHIRON) to a final concentration of 20 IU/ml. On day 7 and 14, the T cells were further stimulated with the autologous peptide-pulsed DCs. The DCs were prepared each time by the same way described above. CTL was tested against peptide-pulsed TISI cells after the 3rd round of peptide stimulation on day 21 (Tanaka H et al., Br J Cancer 2001, 84(1): 94-9; Umano Y et al., Br J Cancer 2001, 84(8): 1052-7; Uchida N et al., Clin Cancer Res 2004, 10(24): 8577-86; Suda T et al., Cancer Sci 2006, 97(5): 411-9; Watanabe T et al., Cancer Sci 2005, 96(8): 498-506).
(§1) Specifically, peptide-pulsed TISI (1×10^4/well) was prepared as stimulator cells. Cultured cells in 48 wells were used as responder cells. IFN-gamma ELISPOT assay and IFN-gamma ELISA assay were performed under manufacture procedure.
CTLs for those peptides derived from TTLL4 were generated according to the protocols as described in “Materials and Methods”.

[2] = system: peptide-pulsed TISI cells; test: IFN-gamma ELISA assay of CTL clones (HLA-A*2402); type: cell-based, human; conditions: CTL clones by limiting dilution, target cells pulsed with peptide vs control
Description: The dilutions were made to have 0.3, 1, and 3 CTLs/well in 96 round-bottomed micro titer plate (Nalge Nunc International). CTLs were cultured with 1×10^4 cells/well of 2 kinds of human B-lymphoblastoid cell lines, 30 ng/ml of anti-CD3 antibody, and 125 U/ml of IL-2 in a total of […] of AIM-V Medium containing 5% AS. 50 micro-l/well of IL-2 were added to the medium 10 days later so to reach a final concentration of 125 U/ml IL-2. CTL activity was tested on the 14th day, and CTL clones were expanded using the same method as described above (Uchida N et al., Clin Cancer Res 2004, 10(24): 8577-86; Suda T et al., Cancer Sci 2006, 97(5): 411-9; Watanabe T et al., Cancer Sci 2005, 96(8): 498-506).
as §1
(§2) CTL activity of these CTL lines was determined by IFN-gamma ELISA assay (FIG. 2a-f). […] Furthermore, the CTL clones were established by limiting dilution from the CTL lines as described in “Materials and Methods”, and IFN-gamma production from the CTL clones against target cells pulsed peptide was determined by IFN-gamma ELISA assay. […] (FIG. 3a-d).

[3] = system: peptide-pulsed TISI cells; test: IFN-gamma ELISA assay of CTL lines (HLA-A*2402); type: cell-based, human; conditions: CTL lines stimulated with peptide, target cells pulsed with peptide vs without peptide pulse
Description: CTLs were expanded in culture using the method similar to the one described by Riddell et al. (Walter E A et al., N Engl J Med 1995 333(16): 1038-44; Riddell S R et al., Nat Med 1996, 2(2): 216-23). A total of 5×10^4 CTLs were suspended in 25 ml of AIM-V/5% AS medium with 2 kinds of human B-lymphoblastoid cell lines, inactivated by Mitomycin C, in the presence of 40 ng/ml of anti-CD3 monoclonal antibody (Pharmingen). One day after initiating the cultures, 120 IU/ml of IL-2 were added to the cultures. The cultures were fed with fresh AIM-V/5% AS medium containing 30 IU/ml of IL-2 on days 5, 8 and 11 (Tanaka H et al., Br J Cancer 2001, 84(1): 94-9; Umano Y et al., Br J Cancer 2001, 84(8): 1052-7; Uchida N et al., Clin Cancer Res 2004, 10(24): 8577-86; Suda T et al., Cancer Sci 2006, 97(5): 411-9; Watanabe T et al., Cancer Sci 2005, 96(8): 498-506).
as §1, §2

[4] = system: COS7 cells transfected with TTLL4 and HLA-A*2402; test: Specific CTL activity against target cells expressing TTLL4 and HLA-A*2402; type: cell-based, African green monkey; conditions: for Specific CTL activity against COS7 cells transfected with both TTLL4 and HLA-A*2402: CTL line (9-103) or CTL clones (10-103, 10-773) established with peptide; for Specific CTL activity against control COS7 cells expressing either HLA-A*2402 or TTLL4: controls: COS7 transfected with only full length TTLL4 or only HLA-A*2402
Description: The cDNA encoding an open reading frame of target genes or HLA-A*2402 was amplified by PCR. The PCR-amplified product was cloned into a vector. The plasmids were transfected into COS7, which is the target genes and HLA-A*2402-null cell line, using lipofectamine 2000 (Invitrogen) according to the manufacturer's recommended procedures. After 2 days from transfection, the transfected cells were harvested with versene (Invitrogen) and used as the target cells (5×10^4 cells/well) for CTL activity assay.
The established CTL lines and clones raised against each peptide were examined for the ability to recognize target cells that express TTLL4 and HLA-A*2402 molecule. […] COS7 cells transfected with either full length of TTLL4 or HLA-A*2402 were prepared as the controls.

Q: For AYFFCPSTL [SEQ ID NO: 6], which “Peptide specific CTL activity (IFN-gamma production, ELISPOT)” value ([1]; listed as TTLL4-A24-9-79) is on record?
A: Its value is “potent IFN-gamma production; also recorded: significant and specific CTL activity”.

Q: What about the “IFN-gamma production of CTL clones (ELISA)” value ([2]; listed as TTLL4-A24-9-79) of the same sequence?
A: The value was “Potent IFN-gamma productions”.

Q: What about the “IFN-gamma production of CTL lines (ELISA)” value [3] of the same sequence?
A: Its value is “potent IFN-gamma production”.

Q: What does the source list for CYLHSLPDLF [SEQ ID NO: 20]?
A: Peptide specific CTL activity (IFN-gamma production, ELISPOT) ([1]; listed as TTLL4-A24-10-103): potent IFN-gamma production; also recorded: significant and specific CTL activity; IFN-gamma production of CTL clones (ELISA) ([2]; listed as TTLL4-A24-10-103): Potent IFN-gamma productions; IFN-gamma production of CTL lines (ELISA) [3]: potent IFN-gamma production; Specific CTL activity against COS7 cells transfected with both TTLL4 and HLA-A*2402 ([4]; listed as TTLL4-A24-10-103): specific CTL activity; also recorded: potent CTL activity; Specific CTL activity against control COS7 cells expressing either HLA-A*2402 or TTLL4 [4]: no significant specific CTL activity was detected

Q: Which results are given for SYDPLRIYLF [SEQ ID NO: 21]?
A: Peptide specific CTL activity (IFN-gamma production, ELISPOT) ([1]; listed as TTLL4-A24-10-773): potent IFN-gamma production; also recorded: significant and specific CTL activity; IFN-gamma production of CTL clones (ELISA) ([2]; listed as TTLL4-A24-10-773): Potent IFN-gamma productions; IFN-gamma production of CTL lines (ELISA) [3]: potent IFN-gamma production; Specific CTL activity against COS7 cells transfected with both TTLL4 and HLA-A*2402 ([4]; listed as TTLL4-A24-10-773): specific CTL activity; also recorded: potent CTL activity; Specific CTL activity against control COS7 cells expressing either HLA-A*2402 or TTLL4 [4]: no significant specific CTL activity was detected

Q: With RYLHKPYLI [SEQ ID NO: 1] as the sequence, how does the “Peptide specific CTL activity (IFN-gamma production, ELISPOT)” value ([1]; listed as TTLL4-A24-9-750) read?
A: The value was “potent IFN-gamma production; also recorded: significant and specific CTL activity”.

Q: And the “IFN-gamma production of CTL clones (ELISA)” value ([2]; listed as TTLL4-A24-9-750)?
A: The value was “Potent IFN-gamma productions”.

Q: What about the “IFN-gamma production of CTL lines (ELISA)” value [3] of the same sequence?
A: Its value is “potent IFN-gamma production”.
